Data as given in patent publication US7501425B1, “Bicyclic pyrimidines and bicyclic 3,4-dihydropyprimidines as inhibitors of cellular proliferation” (Warner Lambert Company, priority 1999, dated 2009).

What was measured:
[1] = target: cdc2/cyclinB (Homo sapiens, UniProt P06493); assay: Cyclin-dependent kinase assay cdc2/cyclinB (cdk1/B); format: biochemical
Procedure: (§1) Cyclin-Dependent Kinase Assays (cdk2/cyclinE, cdk2/cyclinA, cdc2/cyclinB)
(§2) All components except the ATP were added to the wells, and the plate was placed on a plate mixer for 2 minutes. The reaction was begun by addition of [^32P]ATP, and the plate was incubated at 25° C. for 15 minutes. The reaction was terminated by addition of 0.1 mL of 20% TCA. The plate was kept at 4° C. for at least 1 hour to allow the substrate to precipitate. The wells were then washed five times with 0.2 mL of 10% TCA and ^32P incorporation determined with a beta plate counter (Wallac Inc., Gaithersburg, Md.).

[2] = target: cdk2/cyclinE (Homo sapiens, UniProt P24941); assay: Cyclin-dependent kinase assay cdk2/cyclinE; format: biochemical; details: read-out: cdk2/E IC50
Procedure: as §1, §2

[3] = target: T1, FGF-1 (flg) receptor tyrosine kinase (Homo sapiens, UniProt P11362); assay: FGF receptor tyrosine kinase assay; format: biochemical; details: intracellular tyrosine kinase domain, SF9 lysate
T1 construct: amplify a fragment of DNA that codes for the intracellular tyrosine kinase domain; made in house; host or cells: SF9 insect cells (baculovirus)
T1 sequence (P11362 478-767 limits assumed): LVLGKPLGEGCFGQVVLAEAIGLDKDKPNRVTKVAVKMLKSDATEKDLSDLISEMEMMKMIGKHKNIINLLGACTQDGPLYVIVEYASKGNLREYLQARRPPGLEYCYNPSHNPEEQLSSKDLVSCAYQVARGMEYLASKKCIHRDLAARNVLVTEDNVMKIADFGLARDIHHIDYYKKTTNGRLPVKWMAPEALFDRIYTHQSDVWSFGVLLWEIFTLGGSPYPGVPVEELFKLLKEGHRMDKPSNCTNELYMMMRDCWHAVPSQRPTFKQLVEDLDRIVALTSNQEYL
Procedure: The assays used to determine these activities were carried out as follows:
PDGF and FGF Receptor Tyrosine Kinase Assays
PCR primers were designed to amplify a fragment of DNA that codes for the intracellular tyrosine kinase domain. The fragment was inserted into a baculovirus vector, cotransfected with AcMNPV DNA, and the recombinant virus isolated. SF9 insect cells were infected with the virus to overexpress the protein, and the cell lysate was used for the assay. Assays were performed in 96-well plates (100 μL/incubation/well), and conditions were optimized to measure the incorporation of ^32P from γ^32P-ATP into a glutamate-tyrosine co-polymer substrate. Briefly, to each well was added 82.5 μL of incubation buffer containing 25 mM Hepes (pH 7.0), 150 mM NaCl, 0.1% Triton X-100, 0.2 mM PMSF, 0.2 mM Na3VO4, 10 mM MnCl2, and 750 μg/mL of Poly (4:1) glutamate-tyrosine followed by 2.5 μL of inhibitor and 5 μL of enzyme lysate (7.5 μg/μL FGF-TK or 6.0 μg/μL PDGF-TK) to initiate the reaction. Following a 10 minute incubation at 25° C., […] of γ^32P-ATP (0.4 μCi plus 50 μM ATP) was added to each well, and samples were incubated for an additional 10 minutes at 25° C. […] Nonspecific activity was defined as radioactivity retained on the filters following incubation of samples with buffer alone (no enzyme). […]

[4] = target: cdk4/D (Homo sapiens, UniProt P11802); assay: Cyclin-Dependent Kinase 4 (cdk4) enzyme assay, 32P incorporation; format: biochemical; details: 25 μM ATP, retinoblastoma substrate
cdk4/D, sequence (P11802 whole entry, species assumed): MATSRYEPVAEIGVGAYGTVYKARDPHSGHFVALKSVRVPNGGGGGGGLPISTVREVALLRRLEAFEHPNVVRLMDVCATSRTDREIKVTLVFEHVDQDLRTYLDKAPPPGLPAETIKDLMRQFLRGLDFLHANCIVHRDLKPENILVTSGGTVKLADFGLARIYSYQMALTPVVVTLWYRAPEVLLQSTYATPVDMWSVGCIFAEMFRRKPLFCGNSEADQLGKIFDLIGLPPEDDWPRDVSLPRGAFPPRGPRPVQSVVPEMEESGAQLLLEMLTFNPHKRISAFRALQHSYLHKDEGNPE
cdk4/D, sequence (P24385 whole entry partner, species assumed): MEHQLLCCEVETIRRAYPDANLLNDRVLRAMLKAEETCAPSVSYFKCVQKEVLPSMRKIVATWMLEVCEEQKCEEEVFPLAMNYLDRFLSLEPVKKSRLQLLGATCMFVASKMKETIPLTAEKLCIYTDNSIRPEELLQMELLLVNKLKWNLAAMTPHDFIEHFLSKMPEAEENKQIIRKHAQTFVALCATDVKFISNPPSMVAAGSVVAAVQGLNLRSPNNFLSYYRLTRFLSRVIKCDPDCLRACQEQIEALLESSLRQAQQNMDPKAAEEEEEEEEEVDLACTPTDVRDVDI
Procedure: A typical assay, for instance, measures inhibitory activity against the cyclin D dependent kinase 4 enzyme (cdk4/D). […] The cdk4 assay was carried out as follows.
Cyclin-Dependent Kinase 4 (cdk4) Assay
Enzyme assays for IC50 determinations (Tables 1 and 2) and kinetic evaluation were performed in 96 well filter plates (Millipore MADVN6550). The total volume was 0.1 mL containing a final concentration of 20 mM TRIS (tris[hydroxymethyl]aminomethane), at pH 7.4, 50 mM NaCl, 1 mM dithiothreitol, 10 mM MgCl2, 25 μM ATP containing 0.25 μCi of [^32P]ATP, 20 ng of cdk4, 1 μg of retinoblastoma, and appropriate dilutions of a compound of the present invention. All components except the ATP were added to the wells, and the plate was placed on a plate mixer for 2 minutes. The reaction was started by adding [^32P]ATP and the plate was incubated at 25° C. for 15 minutes. The reaction was terminated by addition of 0.1 mL of 20% trichloroacetic acid (TCA). The plate was kept at 4° C. for at least 1 hour to allow the substrate to precipitate. The wells were then washed five times with 0.2 mL of 10% TCA and ^32p incorporation was determined with a beta plate counter (Wallac Inc., Gaithersburg. MD).

[5] = target: cdk2/cyclinA (Homo sapiens, UniProt P24941); assay: Cyclin-dependent kinase assay cdk2/cyclinA; format: biochemical
Procedure: as §1, §2

[6] = target: T2, c-Src (Homo sapiens, UniProt P12931); assay: c-Src kinase assay; format: biochemical; details: 5 μM ATP, poly GluTyr substrate
T2 construct: made in house; host or cells: baculovirus infected insect cells
T2 sequence (P12931 whole entry, species assumed): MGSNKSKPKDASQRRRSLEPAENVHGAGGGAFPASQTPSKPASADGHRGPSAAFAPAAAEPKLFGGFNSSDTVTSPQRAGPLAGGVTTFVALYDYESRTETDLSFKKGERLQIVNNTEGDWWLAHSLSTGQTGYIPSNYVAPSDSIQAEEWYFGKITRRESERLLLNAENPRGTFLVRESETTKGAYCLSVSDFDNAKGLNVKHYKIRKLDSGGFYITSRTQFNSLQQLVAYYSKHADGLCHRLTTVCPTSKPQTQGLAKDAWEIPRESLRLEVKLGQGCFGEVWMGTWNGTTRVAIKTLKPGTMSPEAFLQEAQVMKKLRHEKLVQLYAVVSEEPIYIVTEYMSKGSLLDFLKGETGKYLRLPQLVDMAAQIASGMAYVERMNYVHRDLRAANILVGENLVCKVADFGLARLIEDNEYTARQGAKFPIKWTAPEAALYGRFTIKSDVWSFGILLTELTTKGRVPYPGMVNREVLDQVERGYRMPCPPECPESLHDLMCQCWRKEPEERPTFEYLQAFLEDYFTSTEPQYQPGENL
Procedure: Several of the invention compounds have been evaluated in a standard assay to measure their ability to inhibit cellular Src protein kinase (c-Src). […] The assay was carried out as follows:
c-Src kinase was purified from baculovirus infected insect cell lysates using an antipeptide monoclonal antibody directed against the N-terminal amino acids (amino acids 2-17) of c-Src. The antibody, covalently linked to 0.65 μm latex beads, was added to a suspension of insect cell lysis buffer comprised of 150 mM NaCl, 50 mM Tris pH 7.5, 1 mM DTT, 1% NP-40, 2 mM EGTA, 1 mM sodium vanadate, 1 mM PMSF, 1 μg/mL each of leupeptin, pepstatin, and aprotinin. Insect cell lysate containing c-Src protein was incubated with these beads for 3 to 4 hours at 4° C. with rotation. At the end of the lysate incubation, the beads were rinsed three times in lysis buffer, resuspended in lysis buffer containing 10% glycerol, and frozen. These latex beads were thawed, rinsed three times in assay buffer (40 mM Tris, pH 7.5, 5 mM […]) and suspended in the same buffer. In a Millipore 96-well plate with a 0.65 μm polyvinylidine membrane bottom were added the reaction components: 10 μL c-Src beads, 10 μL of 2.5 mg/mL poly GluTyr substrate, 5 μM ATP containing 0.2 μCi labeled ^32P-ATP, 5 μL DMSO containing inhibitors or as a solvent control, and buffer to make the final volume 125 μL. The reaction was started at room temperature by addition of the ATP and quenched 10 minutes later by the addition of 125 μL of 30% TCA, 0.1 M sodium pyrophosphate for 5 minutes on ice. The plate was then filtered and the wells washed with two […] aliquots of 15% TCA, 0.1 M pyrophosphate. The filters were then punched, counted in a liquid scintillation counter, and the data examined for inhibitory activity in comparison to a known inhibitor such as erbstatin. The method is also described in J. Med. Chem., 1994; 37:598-609. Tables 5 and 6 list c-Src inhibitory concentrations (IC50) for representative invention compounds.

cdc2/cyclinB, sequence (P06493 whole entry, species assumed): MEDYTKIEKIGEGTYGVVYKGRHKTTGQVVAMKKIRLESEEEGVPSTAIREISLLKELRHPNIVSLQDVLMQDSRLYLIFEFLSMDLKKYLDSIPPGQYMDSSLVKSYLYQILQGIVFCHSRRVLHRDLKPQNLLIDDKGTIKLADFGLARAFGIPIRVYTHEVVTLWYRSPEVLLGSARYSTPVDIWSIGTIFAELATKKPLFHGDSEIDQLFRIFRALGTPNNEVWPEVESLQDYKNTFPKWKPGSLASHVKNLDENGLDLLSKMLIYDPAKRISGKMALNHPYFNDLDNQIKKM
cdc2/cyclinB, sequence (P14635 whole entry partner, species assumed): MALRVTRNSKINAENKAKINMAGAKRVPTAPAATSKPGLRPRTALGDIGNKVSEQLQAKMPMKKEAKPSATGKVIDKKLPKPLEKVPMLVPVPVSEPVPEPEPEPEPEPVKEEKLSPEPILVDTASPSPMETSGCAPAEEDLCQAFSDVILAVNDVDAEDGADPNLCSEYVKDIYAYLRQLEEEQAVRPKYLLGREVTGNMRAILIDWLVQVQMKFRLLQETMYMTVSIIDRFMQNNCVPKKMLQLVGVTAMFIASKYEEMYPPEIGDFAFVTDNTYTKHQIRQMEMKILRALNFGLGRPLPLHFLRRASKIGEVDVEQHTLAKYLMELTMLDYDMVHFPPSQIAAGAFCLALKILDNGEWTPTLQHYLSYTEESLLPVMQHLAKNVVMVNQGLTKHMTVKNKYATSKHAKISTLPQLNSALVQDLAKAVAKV

CC(C)n1c(=O)ncc2cnc(Nc3ccc(N4CCC(CCCN5CCOCC5)CC4)cc3)nc21 [Example 43, 1-Isopropyl-7-{4-[4-(3-(morpholin-4-yl)propyl)piperidin-1-yl]phenylamino}-pyrimido[4,5-d]pyrimidin-2(1H)-one]
IC50 [1]: > 40000 nM
IC50 [2]: 38000 nM
IC50 [3]: 4930 nM
IC50 [4]: 540 nM
IC50 [5]: 7490 nM

CN1CCN(c2ccc(Nc3ncc4cnc(=O)n(C5CC6CCC5C6)c4n3)cc2)CC1 (stereo not drawn) [Example 44, 1-Bicyclo [2.2.1]hept-2-yl-7-[4-(4-methylpiperazin-1-yl)phenylamino]-pyrimido[4,5-d]pyrimidin-2(1H)-one, exo]
IC50 [1]: 7360 nM
IC50 [2]: 1200 nM
IC50 [3]: 470 nM
IC50 [4]: 18 nM
melting point: > 210 °C (dec.)
IC50 [6]: 2300 nM
IC50 [5]: 1030 nM
